These results are taken from ChEMBL document CHEMBL1142430, “Acremine G, dimeric metabolite from cultures of Acremonium byssoides A20” (J Nat Prod, 2008).

For one experiment, the system named is Plasmopara viticola. Put plainly: Inhibition of germination of sporangia of Plasmopara viticola at 1 mM. It counts as functional.
The next experiment has as its system NCI-H460. Put plainly: Cytotoxicity against human H460 cells. In kind it is functional, cell-based.

By inhibition is commonly meant the percentage by which the read-out fell short of the control. Low readings indicate little suppression, high ones strong suppression. What is called IC50 is the concentration that gives 50% inhibition. A high value points to weaker potency in that assay. Take `CC1=CC2c3cc(O)c(C)cc3OC3(C1)C(=O)C(C)=CC(=O)C23/C=C/C(C)(C)O` (racemic): the inhibition at 1000 µM in the experiment on Plasmopara viticola is 72.5%. The midpoint of inhibition in the experiment on NCI-H460, the IC50, lay at 48 µM.
`CC(C)(O)/C=C/C1=CC(=O)[C@](C)(O)C[C@@H]1O` [ACREMINE A] displayed an inhibition at 1000 µM with Plasmopara viticola of 58.2%. The compound also yielded an IC50 in the experiment on NCI-H460 above 100 µM.
The corresponding values for `CC(C)(O)/C=C/C1=CC(=O)[C@](C)(O)CC1=O` [ACREMINE B] are 57.7% and 36 µM.
